“Also recorded” adds a separate entry of the source.
How the values were obtained:
[1] = system: rat model of orthostatic hypotension; conditions: no definite beneficial effect shown; cited from earlier work
[2] = system: humans; conditions: doses up to 80 mg orally, no continuous BP monitoring; cited from earlier work
[3] = system: left thoracic vagal nerve; assay: Ambulatory recording of vagal nerve activity (VNA); conditions: carvedilol 12 mg twice daily for a week or ICI infusion 7 days; immediately before drug 192.96
Protocol: (§1) Eight mongrel dogs (4 male, weighing 20-30 kg) were used in this Example. Left thoracotomy was performed through the first intercostal space for the implantation of a D70-CCTP radiotransmitter manufactured by the Data Sciences International (DSI, St Paul, Minn.). The first pair of bipolar electrodes was inserted beneath the nerve sheath of the left stellate ganglion. A second pair of bipolar leads was attached to the left thoracic vagal nerve at a level of 4 to 5 cm above the aortic arch. The third lead, a catheter with a pressure sensor, was inserted directly into the subclavian artery for blood pressure (BP) recording. The transmitter and ground wires were inserted into a subcutaneous pocket.
(§2) After 2 weeks of recovery, the radiotransmitter was turned on to record nerve signals and BP at baseline. The pre-implantation BP was calibrated against the ambient pressure in the vivarium. […]
(§3) The nerve activities were integrated minute-by-minute. […] The mean BP was also analyzed minute-by-minute during the same period. […] Pearson correlation coefficients between these two nerve activities were calculated. […]
(§4) To determine the relationship between BP, heart rate (HR) and ANS activities, 1-minute and 4-hour averages for each dog were calculated on each day of data collection starting at midnight. Pearson correlation coefficients between SGNA and VNA were also calculated within each 4-hour interval. […]

[4] = system: left stellate ganglion; assay: Ambulatory recording of stellate ganglion nerve activity (SGNA); conditions: carvedilol 12 mg twice daily for a week or ICI infusion 7 days; immediately before drug 209.40
Protocol: as §1, §2, §3, §4

[5] = system: mongrel dogs; assay: Ambulatory monitoring of blood pressure in dogs (radiotransmitter, Protocol 1); conditions: for BP response following simultaneous termination of sympathovagal firing and postural change: FIGS. 5A-5I, example dog, baseline drop from 110 mmHg to 80 mmHg; for BP: all eight dogs, random effects model, oral carvedilol 12 mg twice daily for a week, or 7 days of ICI infusion (3.1 μg/kg/hr), baseline 125.60; for percentage of hypotensive episodes (mean systolic pressure <100 mmHg in one min): minute-by-minute data, all dogs, baseline 7.1%
Protocol: as §1
After 2 weeks of recovery, the radiotransmitter was turned on to record nerve signals and BP at baseline. The pre-implantation BP was calibrated against the ambient pressure in the vivarium. There was a 12-hour daylight cycle in the vivarium staring at 7 AM each day. After the baseline (stellate ganglion nerve activity (SGNA), vagal nerve activity (VNA), and BP) recordings, the dogs were given oral carvedilol, 12 mg twice daily for a week. The drugs were then washed out for a week and baseline recordings were re-collected. […] The pump is designed to empty its contents over 7 days at a rate of 10 μl/hr. Therefore, the infusion rate was 3.1 μg/kg/hr for a 30 kg dog. […] The data collected at days 6-7 of the infusion were used for analyses.
The nerve activities were integrated minute-by-minute. Because BP recordings are prone to motion artifacts, the data of all dogs included in Protocol 1 was manually reviewed and the first 10 noise-free minutes of each hour were selected for analyses. The mean BP was also analyzed minute-by-minute during the same period. The SGNA was plotted against the VNA on an XY graph to visualize the patterns of activation. Pearson correlation coefficients between these two nerve activities were calculated. The data obtained from the manual analyses were subjected to further statistical analyses as described below.
To determine the relationship between BP, heart rate (HR) and ANS activities, 1-minute and 4-hour averages for each dog were calculated on each day of data collection starting at midnight. Pearson correlation coefficients between SGNA and VNA were also calculated within each 4-hour interval. To analyze data from any given individual dog, multiple linear regression with systolic BP as the dependent variable and ANS activities as the independent variables based on 1-minute average data were used. To analyze data from all dogs and the 4-hour average data, a random effects model with dog as the random effect was used with the same dependent and independent variables, plus HR and the Pearson correlation coefficient as additional independent variables. […] A cubic smoothing spline was also used to fit BP versus hour for one dog. Statistical analysis was performed with IBM SPSS Statistics 19 (Armonk, N.Y.) and SAS version 9.3 (SAS Institute Inc., Cary, N.C.).

Cc1ccc(OCC(O)C(C)NC(C)C)c2c1CCC2 (stereo not drawn) [ICI-118,551, 3-(isopropylamino)-1-[(7-methyl-4-indanyl)oxy]butan-2-ol]
effect on orthostatic symptoms [1]: had a tendency of improving orthostatic symptoms
effect on BP or heart rate [2]: does not alter BP or heart rate
iVNA (integrated vagal nerve activity) [3]: 220.18 (95% CI: 156.46 to 283.90) mV-s
iSGNA (integrated stellate ganglion nerve activity) [4]: 281.23 (95% CI: 230.30 to 332.16) mV-s
BP response following simultaneous termination of sympathovagal firing and postural change ([5]; listed as ICI): no change in BP; also recorded: not followed by hypotension
BP [5]: 133.00 (95% CI: 124.85 to 141.14) mmHg
percentage of hypotensive episodes (mean systolic pressure <100 mmHg in one min) [5]: 1.3%

COc1ccccc1OCCNCC(O)COc1cccc2[nH]c3ccccc3c12 (stereo not drawn) [carvedilol]
iVNA (integrated vagal nerve activity) [3]: 186.68 mV-s
iSGNA (integrated stellate ganglion nerve activity) [4]: 258.47 (95% CI: 207.20 to 309.75) mV-s
BP response following simultaneous termination of sympathovagal firing and postural change [5]: drop in BP from 100 mmHg to 80 mmHg; also recorded: followed by hypotension
BP [5]: 124.8 (95% CI: 116.63 to 132.97) mmHg
percentage of hypotensive episodes (mean systolic pressure <100 mmHg in one min) [5]: 7.8%

Source: patent US9974759B2, “Beta 2 adrenoceptor antagonists for treating orthostatic hypotension” (Indiana University Research & Technology Corporation, priority 2013, dated 2018)
